≈ marks a conversion by molar mass, not a printed value.
System: concanavalin A (ConA)-stimulated murine splenocytes
Experiment: Concanavalin A-stimulated murine splenocyte assay ([3H]thymidine incorporation)
Assay type: cell-based, mouse (BALB/c)
Protocol: Male BALB/c mice, at 5 to 7 weeks of age, were sacrificed by CO2 inhalation. Spleens were removed and dissociated by pushing through a nylon cell strainer. The splenocytes were washed in RPMI 1640/5% fetal calf serum (FCS) and pelleted at 400×g. Red blood cells were then lysed by resuspending the cell pellet in ACK lysis buffer (150 mM NH4Cl, 1 mM KHCO3, 0.1 mM EDTA, 3 mL per spleen) for 10 min at room temperature. After pelleting at 400×g, the cells were washed by resuspending in RPMI 1640/5% FCS and repelleting. The cell pellet was resuspended in RPMI 1640/5% FCS and again passed through a cell strainer to remove cell aggregates. The cells were then counted and adjusted to 2×10^6 cells/ml in RPMI 1640/10% FCS/50 μM 2-mercaptoethanol. Cell viability was assessed by Trypan blue staining. […] The cells were cultured in a 37° C. CO2 incubator for 2 days and then pulsed with 1 μCi of [^3H]thymidine for 6 hours. Cells were harvested onto filtermats with a TomTec 96 well plate harvester and lysed with H2O. The filtermat and scintillation fluid were sealed in a plastic sleeve. [^3H]thymidine incorporation was measured with a Wallac Trilux plate counter. Initial screens were done at a fixed value of 100 ng/ml test compound. IC50s were calculated from 7 point concentration-response curves using graphPad software.

Row | IC50 [µg/mL] | Structure (SMILES) | immunosuppressive potency compared to cyclosporin A (FIG. 1, ConA stimulated murine splenocyte assay)
1 | 0.032 (≈ 0.0261 µM) | C/C=C\C#CC[C@@H](C)[C@@H](O)[C@H]1C(=O)N[C@@H](CC)C(=O)N(C)CC(=O)N(C)[C@@H](CC(C)C)C(=O)N[C@@H](C(C)C)C(=O)N(C)[C@@H](CC(C)C)C(=O)N[C@@H](C)C(=O)N[C@H](C)C(=O)N(C)[C@@H](CC(C)C)C(=O)N(C)[C@@H](CC(C)C)C(=O)N(C)[C@@H](C(C)C)C(=O)N1C [Example 14, cis-cyclosporin yne-ene] | 
2 | 0.012 (≈ 0.00991 µM) | C#CC#CC[C@@H](C)[C@@H](O)[C@H]1C(=O)N[C@@H](CC)C(=O)N(C)CC(=O)N(C)[C@@H](CC(C)C)C(=O)N[C@@H](C(C)C)C(=O)N(C)[C@@H](CC(C)C)C(=O)N[C@@H](C)C(=O)N[C@H](C)C(=O)N(C)[C@@H](CC(C)C)C(=O)N(C)[C@@H](CC(C)C)C(=O)N(C)[C@@H](C(C)C)C(=O)N1C [Example 25, cyclosporine diyne] | two times more potent over cyclosporin A
3 | 0.012 (≈ 0.0098 µM) | CC#CC#CC[C@@H](C)[C@@H](O)[C@H]1C(=O)N[C@@H](CC)C(=O)N(C)CC(=O)N(C)[C@@H](CC(C)C)C(=O)N[C@@H](C(C)C)C(=O)N(C)[C@@H](CC(C)C)C(=O)N[C@@H](C)C(=O)N[C@H](C)C(=O)N(C)[C@@H](CC(C)C)C(=O)N(C)[C@@H](CC(C)C)C(=O)N(C)[C@@H](C(C)C)C(=O)N1C [Example 27, cyclosporin diyne] | 
4 | 0.077 (≈ 0.0616 µM) | C/C=C\C#CC#CC[C@@H](C)[C@@H](O)[C@H]1C(=O)N[C@@H](CC)C(=O)N(C)CC(=O)N(C)[C@@H](CC(C)C)C(=O)N[C@@H](C(C)C)C(=O)N(C)[C@@H](CC(C)C)C(=O)N[C@@H](C)C(=O)N[C@H](C)C(=O)N(C)[C@@H](CC(C)C)C(=O)N(C)[C@@H](CC(C)C)C(=O)N(C)[C@@H](C(C)C)C(=O)N1C [Example 35, cis-cyclosporin yne-yne-ene] | 

From patent publication US7696165B2 (Albany Molecular Research, Inc., priority 2006, dated 2010)
